The target of one data set is T1, Human 15-LOX (Homo sapiens, UniProt O15296).
T1 construct: purchased Cayman Chemical Company #10011263
The experiment in a line: Human 15-LOX assay. Particulars: RG7774 10 µM; read-out: Mean ± SEM % inhibition of control, Human 15-LOX. It is filed as biochemical.

A further data set relates to laser-induced CNV. Briefly: Laser-induced CNV in rats, fluorescein angiography lesion area. It is filed as in vivo, Brown Norway rats. Conditions: CNV rat model, ED50 0.037 mg/kg. Here is the method: Male Brown Norway rats (Charles River, Sulzfeld, Germany) aged 9 weeks and weighing 200 g on arrival ([…] after 1 week) were housed in individually ventilated GR1800 cages (Tecniplast, Pontremoli, Italy) with a maximum density of n = 5 rats per cage with the same litter and sex. The room was kept at 20°C–24°C with 50%–60% humidity and a 12/12 h light-dark cycle with ad libitum access to standard diet and water.
RG7774 was formulated (w/w) in 0.1% hydroxyethyl cellulose, 1% polysorbate 80, 0.18% methylparaben, 0.02% propylparaben, and 0.21% citric acid monohydrate, adjusted to pH 6 using NaOH. Three studies with 20 rats each were performed. […] The wellbeing of the animals was monitored daily, and free access was granted to food and water. […] Body weight was continuously monitored, and oral doses of RG7774 were adjusted accordingly. […]
Rats were anesthetized 1 week after laser injury using fentanyl 0.005 mg/kg, medetomidine 0.15 mg/kg, and midazolam 2 mg/kg. […] Retinal vessels and neovascularization were visualized by switching to fluorescence mode.
Images taken by the Heidelberg Spectralis HRA system were manually analyzed for the degree of CNV within the lesion (fluorescent) area and the affected area (in mm^2) was calculated using the Heidelberg Eye Explorer imaging program (Heidelberg Spectralis HRA, Heidelberg Engineering, Heidelberg, Germany). […]

The next data set addresses T2, recombinant mouse CB2R (Mus musculus, UniProt P47936).
T2 construct: bgal (beta-galactosidase fragment of the PathHunter system); host or cells: CHO-K1
Briefly: Forskolin-stimulated cAMP assay in CHO cells. The format is cell-based. Here is the method: (§1) The inhibitory effects of RG7774 on forskolin-stimulated accumulation of cAMP were determined using the cAMP-Nano-TRF detection kit (Roche Diagnostics, Penzberg, Germany), as previously described ([Porter et al., 2019]). CHOK1hCB1_bgal, CHOK1mCB2_bgal, and CHOK1hCB2_bgal cells (DiscoveRx, Fremont, CA, United States) were seeded 17–24 h prior to the experiment at a density of 3 × 10^4 cells per well in a black 96-well plate with a flat, clear bottom (Corning, Wiesbaden, Germany) prior to incubating in 5% CO2 at 37°C in a humidified incubator. The growth medium was exchanged with Krebs Ringer bicarbonate buffer containing 1 mM IBMX and 0.1% fatty acid-free BSA and incubated at 30°C for 1 h. RG7774 or positive control (CP55940) (1 µM) was added to a 0.1 mL final assay volume and the mixture was incubated at 30°C for 30 min. The assay was stopped by adding 50 μL 3x lysis reagent and shaking for 2 h at RT. The time-resolved energy transfer was measured using an LF502 Nanoscan FLT (IOM, Berlin, Germany) equipped with a laser excitation source. cAMP content was determined from a standard curve spanning 10–0.13 nM cAMP. Efficacies were expressed as a percentage relative to the positive control.
In general terms: Changes in cAMP serve as a functional read-out for many G protein-coupled receptors.

A further data set has as its target T3, human CB2R (Homo sapiens, UniProt P34972).
T3 construct: bgal (beta-galactosidase fragment of the PathHunter system); host or cells: CHO-K1
The experiment in a line: Forskolin-stimulated cAMP assay in CHO cells. It is filed as cell-based. Here is the method:
as §1

The nature of a further data set: Plasma protein binding. It is filed as in vitro ADME. Conditions: read-out: PPB (fu). Here is the method: Pooled and frozen plasma from selected species were obtained from commercial suppliers (human […] and mouse […]3-C57; BioreclamationIV, NY, USA). Unbound RG7774 was identified using a 96-well, 150 μL, half-cell capacity Teflon equilibrium dialysis device with a 12–14 kDa molecular weight cut-off membrane (HT-Dialysis; Gales Ferry, CT, USA) to minimize nonspecific binding. RG7774 and positive control (diazepam) were tested with an initial total concentration of 1000 nM (cassettes of 2 to 5 test items). Equal volumes of matrix samples containing RG7774 or diazepam and blank (Soerensen) dialysis buffer were loaded into the opposite compartments of each well. Biological matrix and phosphate buffer were adjusted to pH 7.4 on the day of the experiment. The dialysis block was sealed and incubated at 37 °C in 5% CO2 for 5 h. The seal was removed and matrix and buffer from each dialysis were sampled and analyzed by LC-MS/MS. All protein binding determinations were performed in triplicate. Membrane integrity was tested in the HT-Dialysis device by determining the unbound fraction values for diazepam in each well. At equilibrium, the unbound drug concentration in the biological matrix compartment of the equilibrium dialysis apparatus is the same as the concentration of the compound in the buffer compartment. Thus, the percent unbound fraction was calculated as follows: % fraction unbound = 100 × buffer concentration after dialysis/matrix concentration after dialysis. Device recovery was checked by measuring the concentrations of compound in the matrix before dialysis and calculating the percent recovery (mass balance). Recovery ranging from 80%–120% was required for data acceptance.

“And” between values parts separate entries of the source, which are not always exact repeats. Equal entries are not always repeated. Where two headings read alike, the source gives them in different places.

T3 sequence (P34972 whole entry, the tested form may be a part): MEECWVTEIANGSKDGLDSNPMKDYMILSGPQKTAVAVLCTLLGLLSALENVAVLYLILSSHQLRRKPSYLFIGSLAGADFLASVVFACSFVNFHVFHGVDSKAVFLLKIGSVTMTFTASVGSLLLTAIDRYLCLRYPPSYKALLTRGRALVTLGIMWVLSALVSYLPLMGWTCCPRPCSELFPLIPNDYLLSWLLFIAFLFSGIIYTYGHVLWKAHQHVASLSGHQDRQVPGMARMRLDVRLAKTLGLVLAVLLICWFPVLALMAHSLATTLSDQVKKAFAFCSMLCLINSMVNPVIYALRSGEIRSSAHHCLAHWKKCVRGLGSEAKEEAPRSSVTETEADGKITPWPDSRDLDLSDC
T2 sequence (P47936 whole entry, the tested form may be a part): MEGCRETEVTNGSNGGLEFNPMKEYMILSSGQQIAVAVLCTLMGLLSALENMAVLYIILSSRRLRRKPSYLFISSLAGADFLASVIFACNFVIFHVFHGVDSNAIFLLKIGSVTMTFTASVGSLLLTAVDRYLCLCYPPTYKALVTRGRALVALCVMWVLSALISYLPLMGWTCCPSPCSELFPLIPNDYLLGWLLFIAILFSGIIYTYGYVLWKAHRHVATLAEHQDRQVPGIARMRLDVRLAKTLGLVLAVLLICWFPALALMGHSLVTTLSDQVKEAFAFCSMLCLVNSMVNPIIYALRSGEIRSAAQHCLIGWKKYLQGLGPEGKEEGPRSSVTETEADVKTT
T1 sequence (O15296 whole entry): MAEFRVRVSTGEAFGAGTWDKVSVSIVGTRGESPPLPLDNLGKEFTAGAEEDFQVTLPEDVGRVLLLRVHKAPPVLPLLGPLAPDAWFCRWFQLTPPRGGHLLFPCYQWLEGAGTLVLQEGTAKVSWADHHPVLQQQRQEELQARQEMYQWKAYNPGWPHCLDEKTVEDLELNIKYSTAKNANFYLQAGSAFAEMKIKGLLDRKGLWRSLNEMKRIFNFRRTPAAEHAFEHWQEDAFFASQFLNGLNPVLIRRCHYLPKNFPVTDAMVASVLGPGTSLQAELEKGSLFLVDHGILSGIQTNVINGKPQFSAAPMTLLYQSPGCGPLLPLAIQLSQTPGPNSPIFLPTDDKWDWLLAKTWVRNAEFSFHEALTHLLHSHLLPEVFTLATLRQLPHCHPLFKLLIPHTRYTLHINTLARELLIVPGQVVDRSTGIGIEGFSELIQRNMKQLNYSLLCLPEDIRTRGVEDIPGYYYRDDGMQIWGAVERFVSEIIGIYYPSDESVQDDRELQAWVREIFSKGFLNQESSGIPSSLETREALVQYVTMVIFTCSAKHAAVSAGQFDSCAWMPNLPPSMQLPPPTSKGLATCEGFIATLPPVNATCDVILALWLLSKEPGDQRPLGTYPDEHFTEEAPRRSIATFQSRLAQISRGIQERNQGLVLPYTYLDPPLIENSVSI
Protocol for Human 15-LOX: The inhibitory effects of different concentrations of RG7774 (0.1-500 µM) on the activities of human recombinant 5-LOX (Cayman Chemical Company #60402), 15-LOX (Cayman Chemical Company #10011263), and human platelet-derived 12-LOX were determined using the Biovision Lipoxygenase Activity Assay Kit (#BVN-K978-100). This kit converts the LOX substrate to an intermediate that reacted with the probe, generating a fluorescent product. The effect of RG7774 (preincubated for 15 min) at 10 µM on LOXs (5-LOX: 0.5 or 1.2 µg; 12-LOX: 20 µg; 15-LOX: 0.23 or 0.3 µg) was ascertained by adding the compounds directly to the incubation medium and the fluorescent signal, recorded at excitation/emission 500/536 nm at 30 sec intervals for 30-40 min, was directly proportional to LOX activity. […] The percentage of human 5-, 12-, and 15-LOX activity (control) was estimated from the amount of oxidized probe in the reaction using a standard curve.

For `Cn1nnnc1Cn1nnc2c(N3CC[C@H](O)C3)nc(C(C)(C)C)nc21` [RG7774, (S)-1-(5-tert-butyl-3-[(1-methyl-1H-tetrazol-5-yl)methyl]-3H-[1,2,3]triazolo[4,5-d]pyrimidin-7-yl)pyrrolidin-3-ol], the inhibition (usually the change of the read-out against control, counted positive when it falls) at 10 µM on Human 15-LOX is -8.7%. Moreover, the “maximum concentration of the free active epimer in plasma associated with the ED50” value with laser-induced CNV is listed as 12.5 nM. The “average concentration of the free active epimer in plasma associated with the ED50” value in the data set with laser-induced CNV (S/R-enantiomer ratio of 2 assumed) was 1.05 nM. The EC50 (usually the concentration that produces a half-maximal response) is 2.6 ± 0.14 nM at recombinant mouse CB2R; 2.8 nM and 2.81 nM on human CB2R (EC50, inhibition of forskolin-induced cAMP, human CB2R, recombinant CHO cells). Also, on recombinant mouse CB2R (cAMP, CHO cells), the “efficacy compared to maximum efficacy of CP55940, mouse CB2R” value is “full agonist”. Besides, the “functional affinity for human CB2R over CB1R” value on human CB2R (cAMP assays) was > 3,600 fold. Also, at human CB2R (cAMP, CHO cells), the “efficacy compared to maximum efficacy of CP55940, human CB2R” value is “full agonist”. Also, the fraction unbound at 5 h, 1000 nM turned out to be 0.045 in the data set “Plasma protein binding” (C57, pooled plasma, pH 7.4, mouse); 0.178 in the data set “Plasma protein binding” (pooled plasma, pH 7.4, human); 0.158 in the data set “Plasma protein binding” (pooled plasma, pH 7.4, rat).
